Literature values in patent publication US20160376245A1, “IMPURITY OF FAMOTIDINE” (GAVIS PHARMACEUTICALS, priority 2015, published 2016).
Where two headings read alike, the source gives them in different places.

For `NC(N)=Nc1nc(CSCCC(N)=NS(N)(=O)=O)cs1` [Famotidine, N-(aminosulfonyl)-3-[[[2-[(diaminomethylene)amino]-4-thiazolyl]methyl]thio] propanimidamide], the solubility (in ethanol) is given as “practically insoluble”, the solubility (in glacial acetic acid) is given as “freely soluble” and the solubility (in methanol) is given as “slightly soluble”. For the same molecule, the solubility (in water) was “very slightly soluble”.
